{"source": "patent US7871987B2", "about": "“Ester derivatives of ascorbic and 2-keto acid saccharides” (Dow Corning Corporation, priority 2004, dated 2011)", "key": {"[1]": {"test_system": "Melanoderm tissue model MEL 300 A", "assay": "Melanin content / skin lightening assay in MelanoDerm tissue model", "assay_type": "cell-based, human", "details": "for Melanin concentration vs. water: Day 10, after 6 applications; for Melanin Concentration at Day 10 (Avg.): after 6 applications, 10 μL in DMI (kojic acid 25 μL, 1% in water)", "source_text": "(§1) This example illustrates cell viability properties and efficacy of skin lightening formulations according to the present invention. For purposes of these examples, DP2 and DP15 both refer to a bis-ascorbyl ester of a (10-carboxydecyl)-terminated dimethylsiloxane, but with the former having two degrees of polymerization, and the latter having an average of 15 degrees of polymerization (15+/−5). In particular, three formulations according to the present invention, water (a negative control), 1% kojic acid (Sigma, Wis.) in water (positive control), and 2.3% ascorbyl palmitate in DMI (dimethyl isosorbide from Uniqema Americas, representative of a currently commercially available skin-lightening compound), were assayed and compared for cell viability and skin lightening efficacy (see Table 4). The assays were carried out using Melanoderm tissue model MEL 300 A cell line (MelanoDerm™ tissue model available from MatTek, Ashland, Mass.). This melanoderm model consists of normal, human-derived epidermal keratinocytes and melanocytes that have been co-cultured to form a multilayer, highly differentiated model of human epidermis.\nTable 6 (see FIG. 4(a)) sets forth the […] after 6 applications of each formulation as indicated. Melanin concentration (ug/ml) was lower (p<0.05) in the positive control (kojic acid) and in Ascorbyl palmitate, DP2, and DP2+ascorbic acid. Table 7 (see FIG. 4(b) also sets forth the melanocyte concentration on Day 10, after six applications of the test formulations. Melanin concentration (ug/ml) was higher (p<0.05) in DP2, with no difference from DP2+ascorbic acid or DPI 5. However, p value for DP15 had high variability and statistical difference was borderline (p=0.06)"}, "[2]": {"test_system": "Melanoderm tissue model MEL 300 A", "assay": "Viability by MTT assay (MatTek MTT ET-50 protocol)", "assay_type": "cell-based, human", "details": "for MTT reading (individual readings): listed as DP2/DMI", "source_text": "as §1\nDuplicate samples of each of the formulations in Table 4 were dosed and tested for 48 hours for cell viability by MTT assay (MatTek MTT ET-50 protocol). The volume of water and kojic acid used was 25 ul."}, "[3]": {"assay": "Dispersibility in carriers (caprylic/capric triglyceride, cyclopentasiloxane, deionized water)", "assay_type": "physicochemical", "protocol": "a) Approximately 7.2 g of a sample of a material of the present invention comprising an undecyl ascorbate group on one end of the short chain dimethylsiloxane (Formula=Si(CH3)3-[Si(CH3)2]8—[CH2]10—COO-Ascorbate), with a calculated molecular weight of 1082) was weighed into a glass vial. Liponate CG (INCI name: caprylic/capric triglyceride) was added to the vial to bring the net weight to 20 g. The vial was warmed in a water bath set at 50° C. […] A sample of ascorbyl palmitate obtained from DSM was also tested for dispersibility in Liponate CG. Several concentrations were tested. The lowest concentration tested was made by weighing approximately 2.3 g of ascorbyl palmitate into a glass vial and then adding caprylic/capric triglyceride to bring the net weight to 20 g. […] The silicone was added to the vial to bring the net weight to 20 g. […] This mixture thickened upon cooling to room temperature. To determine if the mixture was a stable dispersion or an unstable suspension, the mixture was centrifuged in a bench top laboratory centrifuge at 3000 rpm for approximately 30 minutes. […] The amount of white material was small (much less than the amount of siloxane undecyl ascorbate that was used) and it was later determined that the white material was most likely unreacted ascorbic acid. A sample of ascorbyl palmitate obtained from DSM was tested for dispersibility in Dow Corning® 245 Fluid. Several concentrations were tested. The lowest concentration tested was made by weighing approximately 2.3 g of ascorbyl palmitate into a glass vial and then adding Dow Corning® 245 Fluid to bring the net weight to 20 g. […] Deionized water was added to bring the total net weight to 3.5 g. The vial was placed in a water bath set at 60° C. and the disiloxane material began to disperse after a few minutes. The vial was pulled out of the water bath periodically over the next 10-15 minutes. […] Upon cooling the vial was examined to determine if all of the test material had been dispersed. It was difficult to tell due to the hazy appearance of the sample. The experiment was repeated with approximately 0.17 of the disiloxane diluted to 3.5 g with deionized water. […] Ascorbyl palmitate obtained from DSM was tested for dispersibility in deionized water."}, "[4]": {"details": "first duplicate sample, 10 uL dose, 48 hours"}, "[5]": {"details": "second duplicate sample, 10 uL dose, 48 hours"}, "[6]": {"details": "approximately 2.3 g brought to 20 g (lowest concentration), 50° C. to 90° C. for 20-30 minutes"}}, "note": "Where “and” joins values, the source holds several entries; their conditions need not be identical. Equal values may be shown once."}
{"smiles": "C[Si](C)(CCCCCCCCCCC(=O)OCC(O)C1OC(=O)C(O)=C1O)O[Si](C)(C)CCCCCCCCCCC(=O)OCC(O)C1OC(=O)C(O)=C1O", "note": "(stereo not shown) [DP2, bis-ascorbyl ester of a (10-carboxydecyl)-terminated dimethylsiloxane]", "values": [{"measurement": "Melanin concentration vs. water", "setting": "[1]; p<0.05", "result": "lower"}, {"measurement": "Melanin concentration vs. ascorbyl palmitate", "setting": "[1]; Day 10, after six applications, p<0.05", "result": "higher"}, {"measurement": "Melanin Concentration at Day 10 (Avg.)", "setting": "[1]", "result": 44.40, "unit": "µg/mL"}, {"measurement": "cytotoxicity", "setting": "[2]; 10 uL dose, in DMI", "result": "does not cause cytotoxicity"}, {"measurement": "Total average (MTT reading)", "setting": "[2]; both duplicate samples, 10 uL dose, 48 hours", "result": 1.514}, {"measurement": "% Viability (total average)", "setting": "[2]; both duplicate samples, vs water, 10 uL dose, 48 hours", "result": 100.31, "unit": "%"}, {"measurement": "Average (MTT reading)", "setting": "[2]; [4]", "result": 1.417}, {"measurement": "MTT reading (individual readings)", "setting": "[2]; [4]", "result": "1.433 and 1.401"}, {"measurement": "% Viability", "setting": "[2]; first duplicate sample, vs water, 10 uL dose, 48 hours", "result": 91.24, "unit": "%"}, {"measurement": "cell viability", "setting": "[2]; in DMI", "result": "> 90", "unit": "%"}, {"measurement": "Average (MTT reading)", "setting": "[2]; [5]", "result": 1.611}, {"measurement": "MTT reading (individual readings)", "setting": "[2]; [5]", "result": "1.619 and 1.603"}, {"measurement": "% Viability", "setting": "[2]; second duplicate sample, vs water, 10 uL dose, 48 hours", "result": 109.93, "unit": "%"}, {"measurement": "dispersibility in deionized water", "setting": "[3]; approximately 0.17 diluted to 3.5 g, warmed in water bath", "result": "thinner, less hazy dispersion"}, {"measurement": "dispersibility in deionized water", "setting": "[3]; approximately 0.35 g brought to 3.5 g, water bath 60° C.", "result": "thick hazy dispersion"}, {"measurement": "stability of dispersions in deionized water", "setting": "[3]; both dispersions, no sign of separation or settling", "result": "stable for several weeks"}]}
{"smiles": "O=c1cc(CO)occ1O", "note": "[Kojic Acid, kojic acid]", "values": [{"measurement": "Melanin concentration vs. water", "setting": "[1]; p<0.05", "result": "lower"}, {"measurement": "Melanin Concentration at Day 10 (Avg.)", "setting": "[1]", "result": 25.20, "unit": "µg/mL"}]}
{"smiles": "CCCCCCCCCCCCCCCC(=O)OC[C@H](O)[C@H]1OC(=O)C(O)=C1O", "note": "[Ascorbyl Palmitate, Ascorbyl palmitate, reference compound]", "values": [{"measurement": "Melanin concentration vs. water", "setting": "[1]; p<0.05", "result": "lower"}, {"measurement": "Melanin Concentration at Day 10 (Avg.)", "setting": "[1]", "result": 34.14, "unit": "µg/mL"}, {"measurement": "% Viability (total average)", "setting": "[2]; human, 48 h, 2.3 %", "result": 96.04, "unit": "%"}, {"measurement": "Total average (MTT reading)", "setting": "[2]; human, 48 h, 2.3 %", "result": 1.4495}, {"measurement": "dispersibility in Dow Corning 245 Fluid (cyclopentasiloxane)", "setting": "[3]; [6]", "result": "would not disperse"}, {"measurement": "dispersibility in Liponate CG (caprylic/capric triglyceride)", "setting": "[3]; [6]", "result": "would not disperse"}, {"measurement": "dispersibility in deionized water", "setting": "[3]; concentrations comparable to those tested for the disiloxane test material", "result": "not dispersible"}]}
